Source: patent US10544137B2, “PI3K inhibitor, and pharmaceutically acceptable salt, polycrystalline form, and application thereof” (SHANGHAI HAIYAN PHARMACEUTICAL TECHNOLOGY CO., LTD., priority 2016, dated 2020)
Where two headings read alike, the source gives them in different places.

Assays:
PI3K-α (p110α/p85α) = target: T1, PI3K-α (p110α/p85α) (Homo sapiens, UniProt P42336); test: Determination of PI3K kinase activity (ADP Transcreener fluorescence polarization), PI3K-α; format: biochemical; conditions: compared with BKM-120
T1 construct: purchased Invitrogen PV4788
T1 sequence (P42336 whole entry): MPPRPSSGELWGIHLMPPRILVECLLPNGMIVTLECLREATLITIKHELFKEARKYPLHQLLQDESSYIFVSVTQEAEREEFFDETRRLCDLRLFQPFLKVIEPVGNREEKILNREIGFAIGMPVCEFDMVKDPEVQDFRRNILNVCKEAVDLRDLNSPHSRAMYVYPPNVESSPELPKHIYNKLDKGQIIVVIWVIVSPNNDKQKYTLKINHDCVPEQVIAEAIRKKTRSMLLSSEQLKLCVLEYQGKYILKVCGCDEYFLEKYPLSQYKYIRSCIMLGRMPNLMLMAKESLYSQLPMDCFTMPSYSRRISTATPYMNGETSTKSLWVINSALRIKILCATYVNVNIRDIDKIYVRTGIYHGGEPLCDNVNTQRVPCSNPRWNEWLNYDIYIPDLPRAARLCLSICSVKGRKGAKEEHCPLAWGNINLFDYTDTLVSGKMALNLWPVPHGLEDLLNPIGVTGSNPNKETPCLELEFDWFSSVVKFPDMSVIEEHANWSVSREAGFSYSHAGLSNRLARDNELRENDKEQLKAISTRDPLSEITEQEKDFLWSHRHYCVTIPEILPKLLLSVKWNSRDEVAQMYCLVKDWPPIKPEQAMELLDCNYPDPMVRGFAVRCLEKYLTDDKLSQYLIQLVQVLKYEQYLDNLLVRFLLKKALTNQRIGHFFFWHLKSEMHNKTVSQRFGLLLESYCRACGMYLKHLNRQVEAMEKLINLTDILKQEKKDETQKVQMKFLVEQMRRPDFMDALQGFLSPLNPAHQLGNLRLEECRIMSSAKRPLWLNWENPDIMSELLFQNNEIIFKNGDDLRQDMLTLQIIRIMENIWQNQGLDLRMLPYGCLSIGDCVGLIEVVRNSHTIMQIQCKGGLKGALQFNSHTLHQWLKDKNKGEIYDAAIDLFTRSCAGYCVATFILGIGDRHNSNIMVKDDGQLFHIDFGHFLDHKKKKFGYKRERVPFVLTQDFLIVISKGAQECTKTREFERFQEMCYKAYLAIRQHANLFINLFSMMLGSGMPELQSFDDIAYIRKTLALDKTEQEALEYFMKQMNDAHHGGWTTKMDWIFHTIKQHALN
T1 sequence (P27986 whole entry partner): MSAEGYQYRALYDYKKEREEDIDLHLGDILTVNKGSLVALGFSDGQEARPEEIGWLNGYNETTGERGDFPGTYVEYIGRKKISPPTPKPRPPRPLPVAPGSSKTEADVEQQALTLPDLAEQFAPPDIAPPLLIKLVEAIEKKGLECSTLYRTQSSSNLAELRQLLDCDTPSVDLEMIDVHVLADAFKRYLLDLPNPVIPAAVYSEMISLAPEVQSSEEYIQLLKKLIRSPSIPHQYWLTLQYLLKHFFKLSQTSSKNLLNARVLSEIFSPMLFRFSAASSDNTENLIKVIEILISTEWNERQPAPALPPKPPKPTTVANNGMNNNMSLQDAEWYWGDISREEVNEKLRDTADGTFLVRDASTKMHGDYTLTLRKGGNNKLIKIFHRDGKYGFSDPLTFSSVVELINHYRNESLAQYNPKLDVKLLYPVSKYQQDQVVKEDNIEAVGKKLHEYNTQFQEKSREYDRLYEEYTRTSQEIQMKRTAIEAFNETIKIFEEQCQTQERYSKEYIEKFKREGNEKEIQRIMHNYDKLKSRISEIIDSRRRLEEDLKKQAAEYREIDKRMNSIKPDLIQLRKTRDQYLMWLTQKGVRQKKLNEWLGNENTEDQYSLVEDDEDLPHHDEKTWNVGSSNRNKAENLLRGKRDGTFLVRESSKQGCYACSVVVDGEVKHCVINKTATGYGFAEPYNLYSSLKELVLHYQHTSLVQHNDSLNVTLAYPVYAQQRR
Experimental: The inhibition of PI3K kinase activity by the compound to be tested was determined by the following method. The working concentration of each component in the 25 μL enzyme reaction system was: p110α/p85α 3 ng (or p110β/p85α 60 ng, or p110δ/p85α 90 ng, or p110γ 100 ng), ATP 10 μM, PIP2: PS (Invitrogen PV5100) 30 μM and the DMSO concentration was 2% after addition of the compound to be tested.
The compound to be tested was gradiently diluted 3 times (0.00046-1 μM, 8 concentration points) with 10% DMSO. 5 μL of the compound to be tested was added to each well of a 96-well plate (Greiner 675076) in duplicate. […] 10 μL of ATP/PIP2: PS and 10 μL of the PI3K enzyme working solution were added to each well in a 96-well plate. The plate was shaken and mixed uniformly, and then incubated at 25° C. for 1 hour. […] After completion of the enzyme reaction, 25 μL of ADP assay solution (1% 100×ADP tracer, 0.79% ADP antibody and 10% 10× reaction stop solution) was added and incubated at 25° C. for 1 hour. Fluorescence polarization value [mP] of each well was measured with a Perkin Elmer Victor X5 Fluorescent Microplate. The ADP concentration [ADP] was calculated from the ADP/ATP standard curve and the IC50 values were calculated using the XLFit software.

[1] = Metabolism stability assay in liver microsomes; format: in vitro ADME, mouse; conditions: liver microsomal metabolism in mice
Experimental: Buffer A: 1 L solution of 100 mM potassium dihydrogen phosphate containing 1 mM EDTA (Sigma, V900157-100G) was prepared. Buffer B: 1 L solution of 100 mM dipotassium hydrogen phosphate containing 1 mM EDTA was prepared. Buffer C: 700 mL of buffer B was taken out and titrated with buffer A to pH 7.4.
2.1 10 μl of 10 mM compound to be tested and 10 μl of 10 mM ketanserin were taken out and 190 μl of pure acetonitrile was added to each of them to prepare 500 μM compound to be tested and ketanserin, respectively.
2.2 20 μl (20 mg/mL) of liver microsomes (XENOTECH, H0610) stock solution was added to 513.4 μl of buffer C on wet ice. 0.75 mg/mL liver microsomal solution was obtained.
2.3 1.5 μl of each of the above-mentioned compound to be tested and ketanserin solution was added to 498.5 μl of liver microsomal solution (0.7 5 mg/mL) respectively on wet ice. 1.5 μM mixed solution of compound to be tested and 1.5 μM mixed solution of ketanserin were obtained. […]
2.10 The sample was diluted with pure water in accordance with the ratio of 1:1 and detected by LC/MS. […]
Wherein, the K value and the proportional factor were calculated by those skilled in the art according to the methods described in the prior art and contained in the instructions of the liver microsome product.

NIH-3T3 cells = test: Cytotoxicity in normal cell line NIH-3T3 (MTT assay); format: cell-based
Experimental: The MTT assay procedure and steps were carried out as well known to those skilled in the art, and all the reagents used in the methods were commercially available.
The cells in logarithmic growth phase were digested with 0.25% EDTA trypsin (Gibco, 25200-056) and resuspended in fresh medium. 90 μL of the cell suspension was inoculated into a 96-well cell culture plate (BD Faclon 353072) with a suitable cell density and cultured at 37° C. under 5% CO2. After the cells adhered, 10 μL of the test compound at different concentrations (0.0046-10 μM, 8 concentration points) was added and incubated for another 72 h. 10 μL of MTT (5 mg/mL PBS solution) (Sigma, M5655) was added to react for 4 h. The absorbance at 492 nm was measured by using Thermo Scientific Multiskan MK3 microplate reader and IC50 was calculated using XLFIT 5.0 software (UK IDBS).

[2] = Solubility experiment in 0.1M HCl, buffers and water; format: physicochemical; conditions: ambient temperature; for solubility at 30 min: thermodynamic from solid
Experimental: The solubilities of the following four kinds of salt and free base sample in 0.1M HCl, pH 4.5 buffer, pH 6.8 buffer, and water were tested at ambient temperature. In the test, the calibration curves of free base and four kinds of salt were plotted. 3 mg of solid samples of free base and four kinds of salt were weighed, respectively, and then 1 ml of the solvent was added, centrifuged after 30 min ultrasound. The supernatant was taken, and injected through the membrane, and the solubility was tested.

CS(=O)(=O)C1(c2cc(-c3cnc(N)cc3Cl)nc(N3CCOCC3)n2)CC1 [Compound of formula X, 4-chloro-5-(6-(1-(methylsulfonyl)cyclopropyl)-2-morpholinopyrimidin-4-yl)pyridin-2-amine]
increase of inhibitory activity against PI3K-α kinase versus BKM-120 (PI3K-α (p110α/p85α)): about 10 times | Clearance [1]: 108.9 mL/min/kg | cytotoxicity in normal cell lines (NIH-3T3 cells): relatively low cytotoxicity | Solubility (mg/mL) 0.1M HCl ([2]; 0.1M HCl, listed as Free base): >2.973 mg/mL | solubility at 30 min ([2]; pH 4.5 buffer, pH 4.5, aqueous buffer, pH 4.5 buffer, read-out: Solubility (mg/mL) pH 4.5): 0.025 mg/mL | solubility at 30 min ([2]; pH 6.8 buffer, pH 6.8, aqueous buffer, pH 6.8 buffer, read-out: Solubility (mg/mL) pH 6.8): 0.015 mg/mL | Solubility (mg/mL) H2O ([2]; water, listed as Free base): 0.016 mg/mL
